Assay results from patent EP4534610A1, “FLUOROPHORE COMPOUNDS AND PRODUCTION THEREOF” (Université Fribourg, priority 2023, dated 2025).
“And” between values parts separate entries of the source, which are not always exact repeats. Equal entries are not always repeated.

Tests used:
[1] = Optical properties in different solvents: emission and absorption maxima, lifetime, quantum yield; type: physicochemical; conditions: for Lifetime, τavr.: multiexponential lifetime represented with τavr.; for Φf: quantum yield determined using integrating sphere
Protocol: (§1) ^1H-NMR was recorded on 400 MHz (Brucker DRX 400) and ^13C-NMR spectra were recorded on Bruker 100 MHz spectrometer at room temperature with d6-DMSO as a solvent and tetramethylsilane (TMS) as the internal standard. Mass spectra were performed on the Bruker-ION Trap Ms. Fluorescence spectra were measured on an Edinburgh Instruments FS5 Spectrofluorometer. Absorption spectra were determined on a Perkin Elmer UV/VIS Lambda 2 (190-1100 nm) spectrophotometer. IR spectra were recorded on a Perking Elmer FT-IR spectrometer Frontier 4000-400 cm^-1. Single crystal structures were obtained from a STOE-IPDS II (Single crystal diffractometer λ-Mo), solved and refined using SHELXT software package.

HEK/OVA-B16 cells = assay: Staining and fluorescence imaging of living cells; type: cell-based; conditions: for staining pattern in cells: HEK/OVA-B16 cells; for uptake by living cells: dyes applied for up to 1 hour at 10µM; for fluorescence emission spectrum in situ, peak: excited at 405 nm
[2] = Photostability: UV-visible spectra of 5µM solutions after continuous irradiation with 400 nm light (Xenon-arc lamp, 300 Watt); type: physicochemical; conditions: for stability of the absorbance under irradiation: up to 24h
Protocol: To examine the stability of the absorbance of PyPeBr and PyPe, 5µM solution (2.5 mL) of the respective compounds were prepared using different solvents. The compounds were then irradiated with 400nm using a Xenon-arc lamp at 300 Watt (25 nm FWHM). Following predefined irradiation periods, indicated in Figures 6A to 6H, UV-visible spectra were collected to monitor the stability of PyPeBr and PyPe in different solvents.

[3] = Photoluminescence emission spectra in different solvents; type: physicochemical
Protocol: The photo-physical properties of these dye molecules with stilbene-like motifs were investigated in different solvents in order to determine their maximum absorption and emission wavelengths (Figures 6A to 6C). The compounds were dissolved in Acetonitrile (CH3CN), chloroform (CHCl3), c-hexane (c-HEX), dichloromethane (DCM), dimethylformamide (DMF), methanol (MeOH), tetrahydrofuran (THF), and toluene (Tol).
The highest emission intensity was detected when THF and c-Hex were used as solvents, with lesser intensity recorded for DMF and Tol. PyPe emits light in the blue range, with emission peaks between 380nm and 550nm. Absolute intensities of up to 3.5 x 10^6 were recorded for PyPe in c-Hex.
The photoluminescence spectra of PyPeBr upon excitation at 440nm when dissolved in CH3CN, CHCl3, DCM, DMF, MeOH, or Tol, and upon excitation at 370 nm when dissolved in c-Hex or THF is shown in Figure 4B. PyPeBr has a relatively broad emission spectrum, which depends on the solvent used. The emission spectrum of PyPeBr can be as broad to cover most of the visible range. This broad emission range offers the possibility to select a desired wavelength for imaging by applying appropriate filters.
PyPh emits light in the blue range, ranging from 400nm to 500nm. […] The loss in stability is due to the self-photobleaching reactions, which are induced by irradiation.
as §1

[4] = system: melanoma OVA-B16 cells line; assay: MTT cytotoxicity assay; type: cell-based
Protocol: To this end, cytotoxicity tests using the MTT assay, a standard colorimetric assay for assessing cell metabolic activity known to the person skilled in the art, on melanoma OVA-B16 cells line were performed. […] Cell growth of OVA-16 cells was unaffected after 1h and 24h of exposure of PyPeBr at this concentration.

[5] = Light-induced E/Z isomerisation and photostationary state (X-ray of Zn complex, NMR, UV-Vis); type: physicochemical; conditions: similar irradiation conditions, NMR and UV-visible experiments
Excerpt: Evidence of the efficient photostationary state of PyPe, was provided by exposing a coordination metal complex of E-PyPe with Zn^2+, [Zn(E-PyPe)2Cl2]·2DCM, comprising two PyPe. X-Ray analysis confirmed that prior to irradiation both PyPe in the complex were primarily in E-configuration when coordinated to the Zn^2+ metal centre.
This experiment provided evidence that the light-induced E/Z-configurational change in PyPe reaches a photostationary equilibrium of E/Z-PyPe.
This was achieved by reacting allyl bromide at 40 °C in Acetonitril (MeCN) as described below to produce PyPeBr.

Structure (SMILES): C(=C\c1ccc2ccc3cccc4ccc1c2c34)/c1ccncc1 [PyPe, (E)-4-(2-(pyren-1-yl)vinyl)pyridine, reference compound]
- Knr ([1]; solvent CH3CN): 0.38 10^8 s^-1
- kr ([1]; solvent CH3CN): 4.44 10^8 s^-1
- Lifetime, τavr. ([1]; solvent CH3CN): 2.07 ns
- Φf ([1]; solvent CH3CN): 0.92
- λ^em max ([1]; solvent CH3CN, λex = 405 nm): 616 nm
- Knr ([1]; solvent CHCl3): 0.66 10^8 s^-1
- kr ([1]; solvent CHCl3): 5.44 10^8 s^-1
- Lifetime, τavr. ([1]; solvent CHCl3): 1.65 ns
- Φf ([1]; solvent CHCl3): 0.89
- λ^em max ([1]; solvent CHCl3, λex = 405 nm): 607 nm
- Knr ([1]; solvent DCM): 2.38 10^8 s^-1
- kr ([1]; solvent DCM): 3.43 10^8 s^-1
- Lifetime, τavr. ([1]; solvent DCM): 1.72 ns
- Φf ([1]; solvent DCM): 0.59
- λ^em max ([1]; solvent DCM, λex = 405 nm): 623 nm
- Knr ([1]; solvent DMF): 0.26 10^8 s^-1
- kr ([1]; solvent DMF): 2.60 10^8 s^-1
- Lifetime, τavr. ([1]; solvent DMF): 3.5 ns
- Φf ([1]; solvent DMF): 0.91
- Knr ([1]; solvent MeOH): 0.65 10^8 s^-1
- kr ([1]; solvent MeOH): 3.19 10^8 s^-1
- Lifetime, τavr. ([1]; solvent MeOH): 2.6 ns
- Φf ([1]; solvent MeOH): 0.83
- λ^em max ([1]; solvent MeOH, λex = 405 nm): 611 nm
- Knr ([1]; solvent THF): 2.17 10^8 s^-1
- kr ([1]; solvent THF): 2.26 10^8 s^-1
- Lifetime, τavr. ([1]; solvent THF): 2.26 ns
- Φf ([1]; solvent THF): 0.51
- λ^em max ([1]; solvent THF, λex = 405 nm): 613 nm
- Knr ([1]; solvent Toluene): 0.53 10^8 s^-1
- kr ([1]; solvent Toluene): 3.91 10^8 s^-1
- Lifetime, τavr. ([1]; solvent Toluene): 2.25 ns
- Φf ([1]; solvent Toluene): 0.88
- λ^em max ([1]; solvent Toluene, λex = 405 nm): 603 nm
- Knr ([1]; solvent c-Hex): 0.47 10^8 s^-1
- kr ([1]; solvent c-Hex): 0.84 10^8 s^-1
- Lifetime, τavr. ([1]; solvent c-Hex): 7.58 ns
- Φf ([1]; solvent c-Hex): 0.64
- morphological signs of cell toxicity (HEK/OVA-B16 cells; 10µM): No morphological signs of cell toxicity
- staining pattern in cells (HEK/OVA-B16 cells): cytosolic staining and subcellular partitioning
- uptake by living cells (HEK/OVA-B16 cells): readily taken up
- fluorescence emission spectrum in situ, peak (HEK/OVA-B16 cells): 465 nm
- stability of the absorbance under irradiation ([2]; 5µM in DCM): an early bleaching effect could be detected within the first 15 minutes of irradiation
- stability of the absorbance under irradiation ([2]; 5µM in MeOH): an early bleaching effect could be detected within the first 15 minutes of irradiation
- absolute emission intensities ([3]; in c-Hex, excitation at 370nm): up to 3.5 x 10^6

Structure (SMILES): C=CC[n+]1ccc(/C=C/c2ccc3ccc4cccc5ccc2c3c45)cc1.[Br-] [PyPeBr, (E)-1-allyl-4-(2-(pyren-1-yl)vinyl)pyridinium bromide]
- Knr ([1]; solvent CH3CN): 3.15 10^8 s^-1
- kr ([1]; solvent CH3CN): 1.05 10^8 s^-1
- λ^em max ([1]; solvent CH3CN, Table 2, excitation not given): 621 nm
- Lifetime, τavr. ([1]; solvent CH3CN): 2.38 ns
- Φf ([1]; solvent CH3CN): 0.25
- Knr ([1]; solvent CHCl3): 0.06 10^8 s^-1
- kr ([1]; solvent CHCl3): 6.27 10^8 s^-1
- λ^em max ([1]; solvent CHCl3, Table 2, excitation not given): 609 nm
- Lifetime, τavr. ([1]; solvent CHCl3): 1.58 ns
- Φf ([1]; solvent CHCl3): 0.99
- Knr ([1]; solvent DCM): 1.87 10^8 s^-1
- kr ([1]; solvent DCM): 0.36 10^8 s^-1
- λ^abs max ([1]; solvent DCM): 492 nm
- λ^em max ([1]; solvent DCM, Table 2, excitation not given): 622 nm
- Lifetime, τavr. ([1]; solvent DCM): 4.5 ns
- Φf ([1]; solvent DCM): 0.16
- Knr ([1]; solvent DMF): 1.79 10^8 s^-1
- kr ([1]; solvent DMF): 2.18 10^8 s^-1
- Lifetime, τavr. ([1]; solvent DMF): 2.52 ns
- Φf ([1]; solvent DMF): 0.55
- Knr ([1]; solvent MeOH): 1.33 10^8 s^-1
- kr ([1]; solvent MeOH): 3.79 10^8 s^-1
- λ^em max ([1]; solvent MeOH, Table 2, excitation not given): 614 nm
- Lifetime, τavr. ([1]; solvent MeOH): 1.95 ns
- Φf ([1]; solvent MeOH): 0.74
- Knr ([1]; solvent THF): 3.08 10^8 s^-1
- kr ([1]; solvent THF): 0.06 10^8 s^-1
- λ^abs max ([1]; solvent THF): 447 nm
- λ^em max ([1]; solvent THF, Table 2, excitation not given): 617 nm
- Lifetime, τavr. ([1]; solvent THF): 3.18 ns
- Φf ([1]; solvent THF): 0.02
- Knr ([1]; solvent Toluene): 4.21 10^8 s^-1
- kr ([1]; solvent Toluene): 0.04 10^8 s^-1
- λ^abs max ([1]; solvent Toluene): 455 nm
- λ^em max ([1]; solvent Toluene, Table 2, excitation not given): 606 nm
- Lifetime, τavr. ([1]; solvent Toluene): 2.35 ns
- Φf ([1]; solvent Toluene): 0.01
- Knr ([1]; solvent c-Hex): 4.69 10^8 s^-1
- kr ([1]; solvent c-Hex): 0.10 10^8 s^-1
- λ^abs max ([1]; solvent c-Hex): 370 nm
- Lifetime, τavr. ([1]; solvent c-Hex): 2.09 ns
- Φf ([1]; solvent c-Hex): 0.02
- deterioration in cell activity ([4]; 50 µM in cell buffered water or water/buffer/DMSO mixtures): minor or non-visible signs of deterioration in cell activity
- cell growth ([4]; 50 µM, after 1h and 24h of exposure): unaffected
- morphological signs of cell toxicity (HEK/OVA-B16 cells; 10µM): cytosol structure changes were observed
- morphological signs of cell toxicity (HEK/OVA-B16 cells; 50µM): cells became round and started to detach
- staining pattern in cells (HEK/OVA-B16 cells): stained the cytoplasm
- uptake by living cells (HEK/OVA-B16 cells): readily taken up
- fluorescence emission spectrum in situ, peak (HEK/OVA-B16 cells): 565 nm
- stability of the absorbance under irradiation ([2]; 5µM in MeOH): only a minor decrease in absorbance after 15 minutes of irradiation but no further significant increase over a 24h irradiation period
- capacity to absorb light ranging from 370 nm to 500 nm under irradiation ([2]; 5µM in ultra-pure water (MilliQ purification), 24h): remained substantially unchanged over a 24h irradiation period
- rate of E/Z-isomerization [5]: substantially faster than in PyPe
- solubility in water (Solubility): highly soluble in water
- highest emission intensity ([3]; dissolved in DMF, excitation at 440nm): over 8.5 x 10^6
- emission peaks ([3]; very broad emission range, listed as General Formula P1.1): 405 nm and 465 nm and 565 nm
